Data from ChEMBL document CHEMBL3259737, “Lead optimization studies of cinnamic amide EP2 antagonists” (J Med Chem, 2014).
Values after ≈ are worked out from the molar mass of the structure shown. One block for each compound: values may come before it.

Legend:
C6 = experiment: Cytotoxicity against rat C6 cells assessed as cell viability
[1] = Metabolic stability in human liver microsomes assessed as compound remaining at 10 uM after 60 mins
physchem = settings: PBS buffer, pH 7.4
[2] = Metabolic stability in mouse liver microsomes assessed as compound remaining at 1 uM after 60 mins
[3] = Metabolic stability in human liver microsomes assessed as compound remaining at 1 uM after 60 mins
[4] = Metabolic stability in mouse liver microsomes assessed as compound remaining at 10 uM after 60 mins
[5] = Terminal half life in C57BL/6 mouse plasma at 3 mg/kg, ip; format: ADME, organism-based; parameters: dose 3 mg/kg, route intraperitoneal; settings: read-out: beta t1/2 (converted)
[6] = Ratio of drug level in brain to plasma in C57BL/6 mouse at 5 mg/kg, ip measured after 1 to 2 hrs
[7] = Ratio of drug level in brain to plasma in C57BL/6 mouse at 10 mg/kg, po measured after 1 to 2 hrs
in vivo [8] = settings: C57BL/6, mouse, ip, 5 mg/kg
in vivo [9] = settings: C57BL/6, mouse, po, 10 mg/kg
[10] = biological target: Prostaglandin E2 receptor EP2 subtype (Homo sapiens) (UniProt P43116); experiment: Competitive antagonist activity at human EP2 receptor expressed in rat C6 cells assessed as parallel rightward shift in PGE2 concentration response curve treated for 10 mins prior to PGE2 challenge for 40 mins by TR-FRET assay; format: cell-based
[11] = Cmax in C57BL/6 mouse at 3 mg/kg, iv; format: ADME, organism-based; parameters: dose 3 mg/kg, route intravenous; settings: in vivo

Sequence of Prostaglandin E2 receptor EP2 subtype (Homo sapiens) (P43116 whole entry): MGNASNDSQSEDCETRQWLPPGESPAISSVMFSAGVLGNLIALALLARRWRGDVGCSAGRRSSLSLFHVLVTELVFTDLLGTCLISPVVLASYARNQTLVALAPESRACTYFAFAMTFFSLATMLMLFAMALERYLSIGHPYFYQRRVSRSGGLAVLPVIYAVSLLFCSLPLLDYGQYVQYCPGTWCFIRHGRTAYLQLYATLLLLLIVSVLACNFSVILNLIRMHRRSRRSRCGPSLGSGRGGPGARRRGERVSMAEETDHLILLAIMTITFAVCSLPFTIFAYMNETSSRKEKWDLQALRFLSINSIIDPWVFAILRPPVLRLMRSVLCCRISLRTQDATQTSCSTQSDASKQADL

SMILES: Cc1cc(/C=C/C(=O)NCCn2c(C)cc3ccccc32)cc(C)c1F
CC50 (C6): 368 µM
remaining at 1 h, 10 µM [1]: 24%
solubility kinetic (physchem): < 25 µM
remaining at 1 h, 1 µM [2]: 18.3%
remaining at 1 h, 1 µM [3]: 20.9%
remaining at 1 h, 10 µM [4]: 13%
half-life [5]: 34.8 min

SMILES: Cc1[nH]c2ccccc2c1CCNC(=O)/C=C/c1ccc(OCCO)c(OCCO)c1
CC50 (C6): 126 µM
remaining at 1 h, 10 µM [1]: 70.4%
solubility kinetic (physchem): 235 µM (≈ 99.8 µg/mL)
remaining at 1 h, 1 µM [2]: 7.1%
remaining at 1 h, 1 µM [3]: 58.5%
remaining at 1 h, 10 µM [4]: 19.3%

SMILES: COc1cc(/C=C/C(=O)NCCn2c(C(F)(F)F)cc3ccccc32)cc(OC)c1OCCO
CC50 (C6): 31.2 µM
solubility kinetic (physchem): 35 µM (≈ 16.7 µg/mL)

SMILES: Cc1cc2ccccc2n1CCNC(=O)/C=C/c1ccc(OCCCO)cc1
CC50 (C6): 36.6 µM
solubility kinetic (physchem): 66 µM (≈ 25 µg/mL)

SMILES: COc1cc(/C=C/C(=O)NCCn2c(C)cc3ccccc32)cc(OC)c1OCCN(C)C
solubility kinetic (physchem): 180 µM (≈ 81.3 µg/mL)

solubility kinetic (physchem): 75 µM (≈ 36.9 µg/mL)
SMILES: COc1cc(/C=C/C(=O)NCCn2c(C)c(CN3CCCCC3)c3ccccc32)cc(OC)c1OC

SMILES: COc1cc(/C=C/C(=O)NCCc2c(C)[nH]c3c(F)cc(F)cc23)cc(OC)c1OC
solubility kinetic (physchem): < 25 µM

SMILES: Cc1cc2ccccc2n1CCNC(=O)/C=C/c1ccc(OCCO)cc1
CC50 (C6): 81.7 µM
solubility kinetic (physchem): 68 µM (≈ 24.8 µg/mL)

SMILES: Cc1cc2ccccc2n1CCNC(=O)/C=C/c1ccc(OCCO)c(OCCO)c1
CC50 (C6): 92.3 µM
Kp [6]: < 0.1
Kp [7]: < 0.1
solubility kinetic (physchem): 153 µM (≈ 64.9 µg/mL)
remaining at 1 h, 1 µM [2]: 1.7%
Cmax (in vivo [8]): 1510 ng/mL
remaining at 1 h, 1 µM [3]: 16.2%
remaining at 1 h, 10 µM [4]: 8.7%
Cmax (in vivo [9]): 128 ng/mL

SMILES: COc1cc(/C=C/C(=O)NCCn2c(C)cc3ccccc32)cc(OC)c1OCCO
CC50 (C6): 43.3 µM
solubility kinetic (physchem): 66 µM (≈ 28 µg/mL)
Kb [10]: 6.7 nM
inhibition [10]: Dose-dependent effect

SMILES: Cc1cc2ccccc2n1CCNC(=O)/C=C/c1ccc(OCCN(C)C)cc1
solubility kinetic (physchem): 90 µM (≈ 35.2 µg/mL)

SMILES: COc1cc(/C=C/C(=O)NCCn2c(C)cc3ccccc32)cc(OC)c1
solubility kinetic (physchem): < 25 µM

solubility kinetic (physchem): 91 µM (≈ 43.6 µg/mL)
SMILES: COc1cc(/C=C/C(=O)NCCn2c(CN3CCOCC3)cc3ccccc32)cc(OC)c1OC

SMILES: Cc1cc2ccccc2n1CCNC(=O)/C=C/c1ccc(OCCCN(C)C)cc1
solubility kinetic (physchem): 306 µM (≈ 124 µg/mL)

SMILES: Cc1cc(/C=C/C(=O)NCCc2c(C)[nH]c3ccccc23)cc(C)c1F
CC50 (C6): 317 µM
remaining at 1 h, 10 µM [1]: 21.4%
solubility kinetic (physchem): < 25 µM
remaining at 1 h, 1 µM [2]: 0.1%
remaining at 1 h, 1 µM [3]: 0.4%
remaining at 1 h, 10 µM [4]: 51.7%

SMILES: COc1cc(/C=C/C(=O)NCCn2c(C)cc3ccccc32)cc(OC)c1OC
CC50 (C6): 172 µM
remaining at 1 h, 10 µM [1]: 10.6%
solubility kinetic (physchem): 45 µM (≈ 17.8 µg/mL)
remaining at 1 h, 1 µM [2]: 0.2%
Cmax [11]: 2400 ng/mL
remaining at 1 h, 1 µM [3]: 0.1%
remaining at 1 h, 10 µM [4]: 4.8%

solubility kinetic (physchem): 110 µM (≈ 49.7 µg/mL)
SMILES: COc1cc(/C=C/C(=O)NCCn2c(C)c(CN(C)C)c3ccccc32)cc(OC)c1OC

solubility kinetic (physchem): 67 µM (≈ 32.1 µg/mL)
SMILES: O=C(/C=C/c1ccc(OCCO)c(OCCO)c1)NCCn1c(C(F)(F)F)cc2ccccc21

SMILES: COc1cc(/C=C/C(=O)NCCc2c(C)[nH]c3ccccc23)cc(OC)c1OC
CC50 (C6): 59.5 µM
remaining at 1 h, 10 µM [1]: 5.8%
solubility kinetic (physchem): 43 µM (≈ 17 µg/mL)
remaining at 1 h, 1 µM [2]: 0%
remaining at 1 h, 1 µM [3]: 0.8%
remaining at 1 h, 10 µM [4]: 0.2%

solubility kinetic (physchem): 152 µM (≈ 58 µg/mL)
SMILES: COc1cc(/C=C/C(=O)NCCc2n[nH]c3ccccc23)cc(OC)c1OC

solubility kinetic (physchem): 180 µM (≈ 91.2 µg/mL)
SMILES: COc1cc(/C=C/C(=O)NCCn2c(CNC3CCN(C)CC3)cc3ccccc32)cc(OC)c1OC

SMILES: COc1ccc(/C=C/C(=O)NCCc2c(C)[nH]c3ccccc23)cc1OC
CC50 (C6): 246 µM
remaining at 1 h, 10 µM [1]: 18.6%
solubility kinetic (physchem): 41 µM (≈ 14.9 µg/mL)
remaining at 1 h, 1 µM [2]: 0.2%
remaining at 1 h, 1 µM [3]: 12.4%
remaining at 1 h, 10 µM [4]: 0.1%
